Measurements as given in ChEMBL document CHEMBL3885881, “DrugMatrix”.

Organism: Rattus norvegicus
Assay: DrugMatrix - Regimen: Daily Repeat
Type: toxicity, organism-based, Sprague-Dawley
Set-up: regimen Daily Repeat, gender Male, age 6-8 weeks
Details: in vivo, po, route oral GAVAGE, vehicle .5 % CMC; for BASOPHIL / EOSINOPHIL / ERYTHROCYTE COUNT / HEMATOCRIT / HEMOGLOBIN / LEUKOCYTE COUNT / LYMPHOCYTE / MEAN CORPUSCULAR HEMOGLOBIN / MEAN CORPUSCULAR HEMOGLOBIN CONCENTRATION / MEAN CORPUSCULAR VOLUME / MONOCYTE / NEUTROPHIL / PLATELET COUNT: tissue Blood; for ALANINE AMINOTRANSFERASE / ALBUMIN / ALKALINE PHOSPHATASE / ASPARTATE AMINOTRANSFERASE / BLOOD UREA NITROGEN / CHLORIDE / CHOLESTEROL / CREATINE PHOSPHOKINASE / CREATININE / GLUCOSE / PHOSPHORUS / POTASSIUM / SODIUM / TOTAL BILIRUBIN / TOTAL PROTEIN: tissue Plasma
[1] = 0 mg/kg, 72 h, dose level Control, time 3 day
[2] = 0 mg/kg, 120 h, dose level Control, time 5 day
[3] = 32 mg/kg, 72 h, dose level Low, time 3 day
[4] = 32 mg/kg, 120 h, dose level Low, time 5 day

CC[C@H]1OC(=O)[C@H](C)[C@@H](O[C@H]2C[C@@](C)(OC)[C@@H](O)[C@H](C)O2)[C@H](C)[C@@H](O[C@@H]2O[C@H](C)C[C@H](N(C)C)[C@H]2O)[C@](C)(O)C[C@@H](C)/C(=N\OCOCCOC)[C@H](C)[C@@H](O)[C@]1(C)O [ROXITHROMYCIN]
BASOPHIL [1]: 1.52%
EOSINOPHIL [1]: 0.98%
ERYTHROCYTE COUNT [1]: 6.96 x10E6/uL
HEMATOCRIT [1]: 44.65%
HEMOGLOBIN [1]: 13.62 G/DL
LEUKOCYTE COUNT [1]: 9.83 x10E3/uL
LYMPHOCYTE [1]: 76.48%
MEAN CORPUSCULAR HEMOGLOBIN [1]: 19.57 pg
MEAN CORPUSCULAR HEMOGLOBIN CONCENTRATION [1]: 30.47 G/DL
MEAN CORPUSCULAR VOLUME [1]: 64.22 fL
MONOCYTE [1]: 2.13%
NEUTROPHIL [1]: 18.6%
PLATELET COUNT [1]: 1217.17 x10E3/uL
ALANINE AMINOTRANSFERASE [1]: 41 u/L
ALBUMIN [1]: 3.77 G/DL
ALKALINE PHOSPHATASE [1]: 411.83 u/L
ASPARTATE AMINOTRANSFERASE [1]: 62.83 u/L
BLOOD UREA NITROGEN [1]: 15.17 mg/dL
CHLORIDE [1]: 104.33 MEQ/L
CHOLESTEROL [1]: 71.17 mg/dL
CREATINE PHOSPHOKINASE [1]: 123.5 u/L
CREATININE [1]: 0.55 mg/dL
GLUCOSE [1]: 182.67 mg/dL
PHOSPHORUS [1]: 11.23 mg/dL
POTASSIUM [1]: 7.03 MEQ/L
SODIUM [1]: 148 MEQ/L
TOTAL BILIRUBIN [1]: 0.57 mg/dL
TOTAL PROTEIN [1]: 6.85 G/DL
BASOPHIL [2]: 1.35%
EOSINOPHIL [2]: 0.43%
ERYTHROCYTE COUNT [2]: 6.96 x10E6/uL
HEMATOCRIT [2]: 44.35%
HEMOGLOBIN [2]: 13.98 G/DL
LEUKOCYTE COUNT [2]: 9.45 x10E3/uL
LYMPHOCYTE [2]: 80.83%
MEAN CORPUSCULAR HEMOGLOBIN [2]: 20.1 pg
MEAN CORPUSCULAR HEMOGLOBIN CONCENTRATION [2]: 31.52 G/DL
MEAN CORPUSCULAR VOLUME [2]: 63.72 fL
MONOCYTE [2]: 2.37%
NEUTROPHIL [2]: 14.05%
PLATELET COUNT [2]: 1298 x10E3/uL
ALANINE AMINOTRANSFERASE [2]: 42.17 u/L
ALBUMIN [2]: 3.77 G/DL
ALKALINE PHOSPHATASE [2]: 419 u/L
ASPARTATE AMINOTRANSFERASE [2]: 66.67 u/L
BLOOD UREA NITROGEN [2]: 16.67 mg/dL
CHLORIDE [2]: 103.17 MEQ/L
CHOLESTEROL [2]: 66.33 mg/dL
CREATINE PHOSPHOKINASE [2]: 148.33 u/L
CREATININE [2]: 0.58 mg/dL
GLUCOSE [2]: 196.83 mg/dL
PHOSPHORUS [2]: 11.8 mg/dL
POTASSIUM [2]: 6.47 MEQ/L
SODIUM [2]: 148.33 MEQ/L
TOTAL BILIRUBIN [2]: 0.53 mg/dL
TOTAL PROTEIN [2]: 6.77 G/DL
BASOPHIL [3]: 1.33%
EOSINOPHIL [3]: 0.27%
ERYTHROCYTE COUNT [3]: 7.39 x10E6/uL
HEMATOCRIT [3]: 47.23%
HEMOGLOBIN [3]: 14.73 G/DL
LEUKOCYTE COUNT [3]: 12.3 x10E3/uL
LYMPHOCYTE [3]: 88.63%
MEAN CORPUSCULAR HEMOGLOBIN [3]: 19.9 pg
MEAN CORPUSCULAR HEMOGLOBIN CONCENTRATION [3]: 31.13 G/DL
MEAN CORPUSCULAR VOLUME [3]: 63.97 fL
MONOCYTE [3]: 1.7%
NEUTROPHIL [3]: 7.6%
PLATELET COUNT [3]: 1462 x10E3/uL
ALANINE AMINOTRANSFERASE [3]: 37.67 u/L
ALBUMIN [3]: 3.7 G/DL
ALKALINE PHOSPHATASE [3]: 340.33 u/L
ASPARTATE AMINOTRANSFERASE [3]: 58.33 u/L
BLOOD UREA NITROGEN [3]: 12.33 mg/dL
CHLORIDE [3]: 104.67 MEQ/L
CHOLESTEROL [3]: 59.67 mg/dL
CREATINE PHOSPHOKINASE [3]: 128 u/L
CREATININE [3]: 0.57 mg/dL
GLUCOSE [3]: 224 mg/dL
PHOSPHORUS [3]: 13.23 mg/dL
POTASSIUM [3]: 6.93 MEQ/L
SODIUM [3]: 148.67 MEQ/L
TOTAL BILIRUBIN [3]: 0.4 mg/dL
TOTAL PROTEIN [3]: 6.7 G/DL
BASOPHIL [4]: 1.4%
EOSINOPHIL [4]: 0.3%
ERYTHROCYTE COUNT [4]: 7.37 x10E6/uL
HEMATOCRIT [4]: 44.93%
HEMOGLOBIN [4]: 14.13 G/DL
LEUKOCYTE COUNT [4]: 11.7 x10E3/uL
LYMPHOCYTE [4]: 81.47%
MEAN CORPUSCULAR HEMOGLOBIN [4]: 19.27 pg
MEAN CORPUSCULAR HEMOGLOBIN CONCENTRATION [4]: 31.5 G/DL
MEAN CORPUSCULAR VOLUME [4]: 61.2 fL
MONOCYTE [4]: 2.4%
NEUTROPHIL [4]: 13.53%
PLATELET COUNT [4]: 1353.33 x10E3/uL
ALANINE AMINOTRANSFERASE [4]: 35.67 u/L
ALBUMIN [4]: 3.57 G/DL
ALKALINE PHOSPHATASE [4]: 391.67 u/L
ASPARTATE AMINOTRANSFERASE [4]: 57.67 u/L
BLOOD UREA NITROGEN [4]: 12.67 mg/dL
CHLORIDE [4]: 103 MEQ/L
CHOLESTEROL [4]: 66.33 mg/dL
CREATINE PHOSPHOKINASE [4]: 131.67 u/L
CREATININE [4]: 0.57 mg/dL
GLUCOSE [4]: 185.67 mg/dL
PHOSPHORUS [4]: 12.77 mg/dL
POTASSIUM [4]: 6.73 MEQ/L
SODIUM [4]: 148.33 MEQ/L
TOTAL BILIRUBIN [4]: 0.3 mg/dL
TOTAL PROTEIN [4]: 6.23 G/DL
